The test system of series [1] is CAPAN. Description: tumor cell growth, CAPAN. As to conditions: read-out: IC50 (uM), CAPAN (Pancreatic C).
The target in series [2] is T1, CYP3A4 (Homo sapiens, UniProt P08684).
T1 construct: from tissue; host or cells: human liver microsomes
Description: CYP inhibition in human liver microsomes, CYP3A4. The series is classed as in vitro ADME. As to conditions: 10 μM, 20 minutes, 37° C. The protocol:
(§1) Incubations containing known CYP inhibitors were also included as positive controls. Formation of the model substrate metabolites was measured by LC-MS/MS and compared to control incubations (incubation of substrates with microsomes and cofactors, no test articles or inhibitors). CYP activity in presence of test compound (MNF) that was less than 70% of control was considered significant. MNF (10 μM) inhibited CYP2D6 and CYP3A4 to less than 70% of the control. Further, the primary metabolite was determined to be O-demethylated-MNF. These studies indicate that MNF alters the metabolism of other drugs or endogenous compounds that are substrates for CYP2D6 and/or CYP3A4 isoforms, when present in the plasma or liver at 10 μM or higher.

Series [3] concerns rat C6 glioma cells. Briefly: 3H-Thymidine incorporation in rat C6 glioma cells. The series is classed as cell-based. As to conditions: 24 hours. How it is done: Cell culture. The rat-derived C6 glioma cell line was obtained from the American Type Culture Collection (Manassas, Va.). The cells were routinely maintained in DMEM supplemented with L-glutamine, 1% penicillin/streptomycin solution, and 10% FBS in a humidified CO2 incubator at 37° C.
3H-Thymidine incorporation. C6 glioma cells were seeded in 12-well plates at ˜5×10^4 cells/well and incubated for 24 hours followed by a second 24-hour incubation with various concentrations of MNF. Radiolabeled thymidine (10 Ci/mmol; PerkinElmer Life and Analytical Sciences, Waltham, Mass.) was added at 1 μCi per well for 16 hours and its incorporation into DNA was then measured. Each treatment group was performed in triplicate and three independent studies were carried out.

The subject of series [4] is U87MG cells. Briefly: [3H]-Thymidine incorporation in U87MG cells. The series is classed as cell-based, human. As to conditions: compound alone. The protocol: Maintenance and Treatment of Cell Lines. Human HepG2 hepatocarcinoma cells and human U87MG glioma cells (ATCC, Manassas, Va.) were maintained in EMEM medium supplemented with 1% L-glutamine, 1% sodium pyruvate, 1% penicillin/streptomycin, and 10% FBS (Hyclone, Logan, Utah). The human 1321N1 astrocytoma cells (European Collection of Cell Cultures, Sigma-Aldrich) were cultured in Dulbecco's modified Eagle's medium supplemented with 10% FBS and penicillin/streptomycin. All cell lines were cultured at 37° C. in 5% CO2, and the medium was replaced every 2-3 days.
Cells were seeded in 12-well plates at approximately 50,000 cells/well and incubated at 37° C. After 24 hours, the wells were rinsed with PBS and replaced with serum-free medium containing the appropriate concentration of the test compounds. After another 24-hour incubation at 37° C., 1 μCi of [^3H]-thymidine was added to each well and incubated at 37° C. for 16 hours. [^3H]-Thymidine incorporation into DNA was monitored after the cells were washed twice with PBS and then lysed in 600 μL of 0.1N NaOH for 30 minutes with shaking. The lysate was then mixed with 3 mL of liquid scintillation cocktail (Beckman Coulter, Inc., Brea, Calif.), and radioactivity was measured by liquid scintillation counting using Beckman Coulter LS6000IC Scintillation Counter. Data are shown as CPM incorporated compared to the control cells.
A general note: Dividing cells build labelled thymidine or BrdU into new DNA.

For series [5], the target named is T2, GPR55 (Homo sapiens, UniProt Q9Y2T6). Briefly: Cellular uptake of TocriFluor T1117 in PANC-1 cells. As to conditions: MNF 1 μM.
T2 sequence (Q9Y2T6 whole entry): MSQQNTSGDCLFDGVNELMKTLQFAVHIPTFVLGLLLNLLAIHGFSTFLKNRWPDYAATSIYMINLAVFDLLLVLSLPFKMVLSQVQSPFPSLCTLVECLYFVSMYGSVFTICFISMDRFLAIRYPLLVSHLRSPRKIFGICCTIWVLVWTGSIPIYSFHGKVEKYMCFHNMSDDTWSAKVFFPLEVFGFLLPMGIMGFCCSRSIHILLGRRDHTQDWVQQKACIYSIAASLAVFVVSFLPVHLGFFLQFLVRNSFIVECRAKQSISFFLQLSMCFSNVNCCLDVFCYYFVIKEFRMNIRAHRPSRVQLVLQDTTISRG
Description: Cellular uptake of TocriFluor T1117, a fluorescently labeled GPR55 agonist Cells were grown in 35-mm glass bottom culture dishes (MatTek Corp., Ashland, Mass., USA) for 48 hours until reaching ˜70% confluence. […] Cells were imaged with a Zeiss LSM 710 confocal microscope equipped with a temperature-controlled and humidified CO2 chamber and a definite focus system. […] The time-series function of the Zeiss Zen software was used to collect images with a 40×1.3 NA objective every 30 s for up to one hour, with all confocal settings remaining the same throughout the studies. Still images, movies and fluorescent intensity quantitation were obtained from these series using the Zeiss Zen software. Studies were repeated at least two to three times.
Series [6] addresses T3, CYP2D6 (Homo sapiens, UniProt P10635).
T3 construct: from tissue; host or cells: human liver microsomes
Briefly: CYP inhibition in human liver microsomes, CYP2D6. As to conditions: 10 μM, 20 minutes, 37° C. The series is classed as in vitro ADME. The protocol: as §1
Background: Microsomes from liver hold many membrane-bound enzymes, among them those of drug oxidation.

Series [7] relates to HepG2 cells. Description: [3H]-Thymidine incorporation assay in HepG2 cells. Format: cell-based, human. The settings on record: 1 μM, 24 h. The gist of the method: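 HepG2 and U87MG cells (~50,000/well) were treated 24 hours at 37° C with test compounds in serum-free medium, then labelled 16 hours with 1 μCi [3H]-thymidine. Cells were lysed in 0.1N NaOH and incorporation measured by scintillation counting, expressed as CPM relative to control cells.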

For series [8], the system named is ERK1/2. Description: ERK1/2 phosphorylation (GPR55 downstream signaling) in PANC-1 cells. The series is classed as cell-based, human. The protocol:
Western blot analysis. For detection of intracellular signaling proteins, cells were lysed in radioimmunoprecipitation buffer containing EGTA and EDTA (Boston BioProducts, Ashland, Mass.). The lysis buffer contained a protease inhibitor cocktail (Sigma-Aldrich) and phosphatase inhibitor cocktail (Calbiochem, San Diego, Calif.). Equivalent amount of proteins (14 and 54 μg/well for PANC-1 and HepG2 cells, respectively) were separated on 4 to 12% precast gels (Invitrogen, Carlsbad, Calif.) using SDS-polyacrylamide gel electrophoresis under reducing conditions and then electrophoretically transferred onto polyvinylidene fluoride membrane (Invitrogen). Western blots were performed according to standard methods, which involved blocking in 5% non-fat milk and incubated with the antibody of interest, followed by incubation with a secondary antibody conjugated with the enzyme horseradish perodixase. […] The quantification of bands was done by volume densitometry by using ImageJ software. […]
Effect of MNF on O-1602-mediated increase in cell signaling. Serum-starved cells were pretreated in the absence or presence of 1 μM MNF for 10 minutes followed by a 10 minute incubation with 0, 2.5 and 10 μM O-1602 or 10% FBS, after which the levels of total ERK2 and phosphorylated forms of ERK1/2 (pErk1/2, Thr202/Tyr204), were determined by Western blotting technique. […]

The target in series [9] is T2, GPR55. Briefly: Cellular uptake of TocriFluor T1117 in HepG2 cells. Format: cell-based. On the set-up: host or cells: HepG2 hepatocarcinoma cells.
Series [10] is described as follows: Dose escalation and 7-day repeat dose range finding study in Sprague-Dawley rats. As to conditions: for Gross Necropsy Observation: interim (Day 8) and terminal (Day 14), red: thymus, mandibular lymph node, black or necrosis: tail. The series is classed as in vivo, rat. The protocol: A single dose escalation study was performed to select dose levels for 7-day repeat dose study with IV administration in Sprague-Dawley rats. Dose levels were 0, 5, 10 and 25 mg/kg.

Series [11] in a line: In vitro metabolic stability, rat liver microsomes. Format: in vitro ADME. As to conditions: rat liver microsomes and cofactors, 37° C., 0-60 minutes. How it is done: FIG. 10 presents the data from the in vitro metabolic stability study in which MNF was incubated (in duplicate) with active and heat-inactivated human (HLM) and rat (RLM) liver microsomes and cofactors at 37° C. Aliquots were removed at 0, 15, 30 and 60 minutes and the amount of test compound (MNF) remaining at each time point was determined by LC-MS/MS.

T1 sequence (P08684 whole entry): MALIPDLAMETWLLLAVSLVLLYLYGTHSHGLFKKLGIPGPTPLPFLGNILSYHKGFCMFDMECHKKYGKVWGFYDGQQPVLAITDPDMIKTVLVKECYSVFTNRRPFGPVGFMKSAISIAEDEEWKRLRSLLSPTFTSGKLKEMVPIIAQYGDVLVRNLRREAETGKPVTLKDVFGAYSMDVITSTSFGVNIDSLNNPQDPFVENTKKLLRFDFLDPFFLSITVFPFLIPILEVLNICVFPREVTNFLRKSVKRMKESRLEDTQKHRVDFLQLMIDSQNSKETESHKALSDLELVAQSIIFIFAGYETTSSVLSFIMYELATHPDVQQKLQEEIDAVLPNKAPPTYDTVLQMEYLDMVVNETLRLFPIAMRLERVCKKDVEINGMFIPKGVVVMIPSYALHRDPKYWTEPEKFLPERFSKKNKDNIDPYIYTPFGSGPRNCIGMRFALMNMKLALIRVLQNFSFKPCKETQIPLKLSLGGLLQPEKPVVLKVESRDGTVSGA
T3 sequence (P10635 whole entry): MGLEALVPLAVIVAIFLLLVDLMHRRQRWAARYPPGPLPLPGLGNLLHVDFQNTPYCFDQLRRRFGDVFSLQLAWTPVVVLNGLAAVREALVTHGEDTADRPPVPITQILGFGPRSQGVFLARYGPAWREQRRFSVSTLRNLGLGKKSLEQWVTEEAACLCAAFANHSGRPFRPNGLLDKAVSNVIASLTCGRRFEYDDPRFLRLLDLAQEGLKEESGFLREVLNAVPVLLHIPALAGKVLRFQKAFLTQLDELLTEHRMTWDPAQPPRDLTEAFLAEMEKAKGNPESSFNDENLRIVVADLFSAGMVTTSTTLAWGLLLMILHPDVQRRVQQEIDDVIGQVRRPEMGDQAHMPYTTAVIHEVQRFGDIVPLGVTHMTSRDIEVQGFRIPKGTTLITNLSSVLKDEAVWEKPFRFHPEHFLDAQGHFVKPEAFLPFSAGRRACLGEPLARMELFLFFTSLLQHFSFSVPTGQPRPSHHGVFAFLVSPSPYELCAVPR

Regarding `COc1cccc2c1C(=O)c1c(O)c3c(c(O)c1C2=O)C[C@@](O)(C(=O)CO)C[C@@H]3O[C@H]1C[C@H](N)[C@H](O)[C@H](C)O1` [Doxorubicin, reference compound], the IC50 (in general, the concentration needed to halve the response being measured) in series [1] amounted to 0.23 µM.

Turning to `COc1ccc(C[C@@H](C)NC[C@H](O)c2cc(O)cc(O)c2)c2ccccc12` [(R,R′)-MNF, (R,R′)-4′-methoxy-1-naphthylfenoterol], the “CYP3A4 activity in presence of test compound” value in series [2] is recorded as “less than 70 % of the control”. In series [3] (20 nM), the “inhibition of C6 cell growth / reduction in mitogenesis” value is reported as 54.3±1.2%. In addition, in series [3] (then [3H]-thymidine 16 hours, read-out: IC50, growth inhibition of rat C6 glioma cell line), the IC50 was ~1 nM. The “effect on cellular proliferation” value in series [4] is reported as “potent inhibition of cellular proliferation”. Moreover, in series [5], the “T1117 incorporation” value was “potent inhibitor of T1117 incorporation in PANC-1 cells”. Further, in series [6], the “CYP2D6 activity in presence of test compound” value is listed as “less than 70 % of the control”. Further, the “% Change in HepG2 cells ([3H]-thymidine incorporation)” value in [7] was −59.4%. Besides, in [8] (PANC-1, 1 μM pretreatment 10 minutes), the “effect on O-1602-mediated ERK phosphorylation” value is given as “displayed exquisite sensitivity to MNF with regard to O-1602-mediated ERK phosphorylation”. Also, the “effect on serum-induced ERK phosphorylation” value in series [8] (PANC-1, 1 μM pretreatment, 10% FBS) is on record as “potently inhibited serum-induced ERK phosphorylation in both cell lines”. Moreover, the “reduction in T1117 incorporation” value in series [9] (HepG2, MNF alone (1 μM), 10 nM T1117) was ~70%. In series [9] (HepG2, MNF with AM251 added either before or after the 30-minutes MNF treatment), the “reduction in T1117 incorporation as compared to vehicle-treated cells” value is ~6.8 fold. In addition, the “T1117 uptake” value in series [9] (HepG2, MNF 1 μM or AM251 10 μM for 1 hour, then T1117 0.1 μM) is on record as “dramatically reduced”. Also, in series [10] (Sprague Dawley rats, iv, 0, 5, 10, or 25 mg/kg/day, 7-day), the “Body Weight” value was “comparable”. Further, the “Clinical Pathology: increases in WBC, % Neut., % RET/REA, and PLC” value in [10] (high-dose males and females, Day 8 and Day 14) is given as “Increases: ~2-fold”. Also, the “Gross Necropsy Observation” value is listed as “Discolored black” in [10] (black discoloration or necrosis, tail); “Discolored red:” in series [10] (red discoloration, thymus and lymph node). In [10] (single dose escalation, IV, 0, 5, 10 and 25 mg/kg, Sprague-Dawley rats), the “toxic effects” value is “Toxic effects were minimal”. The “metabolic stability, MNF levels” value in series [11] is “greater decrease in MNF levels”.

Values taken from US11389415B2, “Methods of regulating cannabinoid receptor activity-related disorders and diseases” (The United States of America as represented by the …, priority 2012, dated 2022).
